Source: patent US9707234B2, “Spirocyclic hetercycle compounds useful as HIV integrase inhibitors” (MERCK SHARP & DOHME CORP., priority 2013, dated 2017)
Read-outs that look alike come from different tables or passages of the source.

Tested on: HIV-1 (H9IIIB or NL4-3 virus) replication in MT4-GFP cells
Assay: microbe, parasite or virus in culture
Assay type: cell-based
Details: inhibition of reproductive ratio R0, 48-72 h post-infection
[1] = Human immunodeficiency virus 1, NL43, MT4-GFP cells infected with HIV-1, 10% normal human serum, read-out: ViKinG IP (nM) with 10% NHS
[2] = Human immunodeficiency virus 1, NL43, MT4-GFP cells infected with HIV-1, 100% normal human serum, read-out: ViKinG IP (nM) with 100% NHS
[3] = Human immunodeficiency virus 1, NL43, MT4-GFP cells infected with HIV-1, serum free conditions (0% NHS), read-out: ViKinG IP (nM) with 0% NHS
[4] = MT4-GFP cells infected with HIV-1, 100% normal human serum, read-out: ViKinG IP (nM) with 100% NHS
[5] = MT4-GFP cells infected with HIV-1, serum free conditions (0% NHS), read-out: ViKinG IP (nM) with 0% NHS
[6] = MT4-GFP cells infected with HIV-1, 10% normal human serum, read-out: ViKinG IP (nM) with 10% NHS

Molecule `C[C@@H]1CC2(CCN1C(=O)OCc1ccccc1)N(C)C(=O)c1c(O)c(=O)c(-c3nnc(Cc4ccc(F)cc4F)s3)cn1N2C` (stereo partly shown) [Compound 20] has an IC50 [1] of 234 nM.
For `COCCN1C(=O)c2c(O)c(=O)c(C(=O)NCc3ccc(F)c(Cl)c3)cn2CC12CCOC2` (single isomer, unassigned) [Compound 52], the IC50 [2] was 2000 nM and the IC50 [3] was 4.8 nM.
Molecule `CN1C(=O)c2c(O)c(=O)c(C(=O)NCc3cccc(Cl)c3F)cn2N(C)C12COCC2(C)C` (single isomer, unassigned) [Compound 127] has an IC50 [2] of 134 nM and an IC50 [3] of 1 nM.
With `CN1C(=O)c2c(O)c(=O)c(C(=O)NCc3ccc(F)cc3F)cn2N(C)C12COCC2(C)C` (single isomer, unassigned) [Compound 130] the IC50 [4] was 257 nM and the IC50 [5] was 2.3 nM.
With `CN1C(=O)c2c(O)c(=O)c(C(=O)NCc3ccc(F)c(Cl)c3)cn2N(C)C12CCOC2` (single isomer, unassigned) [Compound 108] the IC50 [4] was 218 nM and the IC50 [5] was 1.1 nM.
With `CN1C(=O)c2c(O)c(=O)c(-c3nnc(Cc4ccc(F)cc4F)s3)cn2N(C)C12CCN(c1ccccn1)CC2` [Compound 30] the IC50 [2] was 280 nM and the IC50 [3] was 38.5 nM.
`CN1C(=O)c2c(O)c(=O)c(C(=O)NCc3ccc(F)cc3F)cn2N(CCO)C12CCOC2` (stereo not shown) [Compound 147] was tested, and the IC50 [3] was 1.6 nM and the IC50 [4] was 74 nM.
Work on `CCN1C(=O)c2c(O)c(=O)c(C(=O)NCc3ccc(F)cc3F)cn2CC12CCOCC2` [Compound 40] yielded an IC50 [2] of 236 nM and an IC50 [3] of 2.8 nM.
Molecule `C[C@H]1CC2(CCN1C(=O)OCc1ccccc1)N(C)C(=O)c1c(O)c(=O)c(-c3nnc(Cc4ccc(F)cc4F)s3)cn1N2C` (stereo partly shown) [Compound 21] has an IC50 [1] of 141 nM.
For `COCCN1C(=O)c2c(O)c(=O)c(C(=O)NCc3ccc(F)c(C)c3F)cn2CC12CCOC2` (single isomer, unassigned) [Compound 53], the IC50 [2] was 2570 nM and the IC50 [3] was 5.3 nM.
In the case of `O=C(NCc1ccc(F)cc1F)c1cn2c(c(O)c1=O)C(=O)N(CCCCC(F)(F)F)C1(CCOCC1)C2` [Compound 47], the IC50 [2] is reported as 71 nM and the IC50 [3] is reported as 6.6 nM.
For `CN1C(=O)c2c(O)c(=O)c(C(=O)NCc3ccc(F)cc3)cn2CC12CCOC2` (single isomer, unassigned) [Compound 59], the IC50 [2] was 56 nM and the IC50 [3] was 1.9 nM.
Work on `CCN1C(=O)c2c(O)c(=O)c(C(=O)NCc3ccc(F)cc3F)cn2CC12CCCOC2` (stereo not shown) [Compound 81] yielded an IC50 [3] of 4.3 nM and an IC50 [4] of 323 nM.
`CN1C(=O)c2c(O)c(=O)c(C(=O)NCc3ccc(F)cc3F)cn2N(Cc2ccccc2)C12CCOC2` (single isomer, unassigned) [Compound 163] gave an IC50 [4] of 35 nM.
`CCOC(=O)N1CCC2(CC1)N(C)C(=O)c1c(O)c(=O)c(-c3nnc(Cc4ccc(F)cc4F)s3)cn1N2C` [Compound 19] showed an IC50 [1] of 9 nM and an IC50 [2] of 133 nM.
`CCC(c1nnc(-c2cn3c(c(O)c2=O)C(=O)N(CC)C2(CCOCC2)C3)s1)c1ccc(F)cc1F` (stereo not shown) [Compound 100] gave an IC50 [2] of 704 nM and an IC50 [3] of 29.2 nM.
`CCN1C(=O)c2c(O)c(=O)c(-c3nnc(Cc4ccc(F)cc4F)s3)cn2CC12CCOCC2` [Compound 99] gave an IC50 [2] of 870 nM and an IC50 [3] of 40.9 nM.
In the case of `CCOC(=O)N1CCC2(CC1)N(CC)C(=O)c1c(O)c(=O)c(-c3nnc(Cc4ccc(F)cc4F)s3)cn1N2C` [Compound 6], the IC50 [1] is reported as 13 nM and the IC50 [2] is reported as 159 nM.
`CN1C(=O)c2c(O)c(=O)c(-c3nnc(Cc4ccc(F)cc4F)s3)cn2N(C)C12CCNC(=O)CC2` (stereo not shown) [Compound 28] was tested, and the IC50 [1] was 122 nM, the IC50 [2] was 679 nM and the IC50 [3] was 53.5 nM.
`CN1C(=O)c2c(O)c(=O)c(C(=O)NCc3ccc(F)c(Cl)c3F)cn2N(C)C12CCOC2` (single isomer, unassigned) [Compound 118] gave an IC50 [4] of 101 nM.
`CC(c1nnc(-c2cn3c(c(O)c2=O)C(=O)N(C)C2(CCOC2)C3)s1)c1ccc(F)cc1F` (stereo not shown) [Compound 102] showed an IC50 [2] of 85 nM and an IC50 [3] of 6.8 nM.
Work on `CN1C(=O)c2c(O)c(=O)c(C(=O)NCc3cccc(Cl)c3F)cn2N(C)C12CCOC2` (single isomer, unassigned) [Compound 110] yielded an IC50 [4] of 121 nM.
Work on `CCN1C(=O)c2c(O)c(=O)c(-c3nnc(Cc4ccc(F)cc4F)s3)cn2N(C)C12CCSCC2` [Compound 15] yielded an IC50 [1] of 178 nM, an IC50 [2] of 3140 nM and an IC50 [3] of 8 nM.
`CN1C(=O)c2c(O)c(=O)c(C(=O)NCc3ccc(F)cc3)cn2CC12CCOC2` (single isomer, unassigned) [Compound 60] gave an IC50 [4] of 42 nM and an IC50 [5] of 3.1 nM.
In the case of `CN1C(=O)c2c(O)c(=O)c(C(=O)NCc3c(F)cccc3F)cn2N(C)C12CCOC2` (single isomer, unassigned) [Compound 115], the IC50 [2] is reported as 54 nM and the IC50 [3] is reported as 1.2 nM.
In the case of `CN1C(=O)c2c(O)c(=O)c(C(=O)NCc3ccc(F)cc3F)cn2CC12CCOC2` (single isomer, unassigned) [Compound 58], the IC50 [1] is reported as 5 nM, the IC50 [4] is reported as 27 nM and the IC50 [5] is reported as 1.9 nM.
With `COCN1C(=O)c2c(O)c(=O)c(C(=O)NCc3ccc(F)cc3F)cn2CC12CCOC2` (single isomer, unassigned) [Compound 76] the IC50 [4] was 151 nM and the IC50 [5] was 2.4 nM.
Molecule `CN1C(=O)c2c(O)c(=O)c(C(=O)NCc3ccc(F)cc3F)cn2N(CC2CC2)C12CCOC2` (single isomer, unassigned) [Compound 151] has an IC50 [2] of 240 nM and an IC50 [3] of 0.7 nM.
`CC1OCCC12N(C)C(=O)c1c(O)c(=O)c(C(=O)NCc3cccc(Cl)c3F)cn1N2C` (single isomer, unassigned) [Compound 136] gave an IC50 [4] of 83 nM.
Work on `COCCCN1C(=O)c2c(O)c(=O)c(C(=O)NCc3ccc(F)cc3F)cn2N(C)C12CCOC2` (single isomer, unassigned) [Compound 123] yielded an IC50 [3] of 1.2 nM, an IC50 [6] of 9 nM and an IC50 [4] of 117 nM.
For `CN1C(=O)c2c(O)c(=O)c(C(=O)NCc3cccc(Cl)c3F)cn2CC12CCOC2` (single isomer, unassigned) [Compound 65], the IC50 [2] was 60 nM and the IC50 [3] was 1.5 nM.
Work on `COCCN1C(=O)c2c(O)c(=O)c(C(=O)NCc3ccc(F)cc3F)cn2CC12COC2` [Compound 70] yielded an IC50 [2] of 91 nM and an IC50 [3] of 2.5 nM.
In the case of `CCOC(=O)N1CCC2(CC1)Cn1cc(-c3nnc(Cc4ccc(F)cc4F)s3)c(=O)c(O)c1C(=O)N2` [Compound 96], the IC50 [2] is reported as 2240 nM and the IC50 [3] is reported as 69.3 nM.
`CN1C(=O)c2c(O)c(=O)c(C(=O)NCc3ccc(F)cc3F)cn2N(C)C12CCOC2` (stereo not shown) [Compound 103] gave an IC50 [1] of 6 nM, an IC50 [2] of 114 nM and an IC50 [5] of 1.7 nM.
For `CN1C(=O)c2c(O)c(=O)c(C(=O)NCc3ccc(F)cc3)cn2N(C)C12CCOC2` (single isomer, unassigned) [Compound 113], the IC50 [2] was 94 nM and the IC50 [3] was 1.5 nM.
With `CCOC(=O)N1CCC2(CC1)Cn1cc(-c3nnc(Cc4ccc(F)cc4F)s3)c(=O)c(O)c1C(=O)N2CC` [Compound 95] the IC50 [2] was 104 nM and the IC50 [3] was 11.6 nM.
With `O=C(NCc1ccc(F)cc1F)c1cn2c(c(O)c1=O)C(=O)N(CCCC(F)(F)F)C1(CCOCC1)C2` [Compound 46] the IC50 [2] was 110 nM and the IC50 [3] was 3.2 nM.
For `CN1C(=O)c2c(O)c(=O)c(C(=O)NCc3c(F)cc(F)cc3F)cn2CC12CCOC2` (single isomer, unassigned) [Compound 64], the IC50 [4] was 26 nM and the IC50 [5] was 3.3 nM.
`CCN1C(=O)c2c(O)c(=O)c(-c3nnc(Cc4ccc(F)cc4F)s3)cn2N(C)C12CCN1C(=O)CCC1C2` (stereo not shown) [Compound 14] gave an IC50 [1] of 41 nM.
`COCc1c(C(=O)NCc2ccc(F)cc2F)c(=O)c(O)c2n1CC1(CCOC1)N(C)C2=O` (stereo not shown) [Compound 48] was tested, and the IC50 [2] was 194 nM and the IC50 [3] was 124 nM.
`CCN1C(=O)c2c(O)c(=O)c(-c3nnc(Cc4ccc(F)cc4F)s3)cn2N(C)C12CCN(C(=O)OC)CC2` [Compound 8] was tested, and the IC50 [2] was 131 nM and the IC50 [3] was 5.5 nM.
With `CCN1C(=O)c2c(O)c(=O)c(C(=O)NCc3ccc(F)cc3F)cn2CC12CCCOC2` (stereo not shown) [Compound 82] the IC50 [4] was 680 nM and the IC50 [5] was 3.1 nM.
Molecule `COCCN1C(=O)c2c(O)c(=O)c(C(=O)NCc3ccc(F)cc3F)cn2CC12CCOC2` (single isomer, unassigned) [Compound 50] has an IC50 [4] of 107 nM and an IC50 [5] of 3.1 nM.
With `COCCCN1C(=O)c2c(O)c(=O)c(C(=O)NCc3ccc(F)cc3F)cn2N(C)C12CCOCC2` [Compound 141] the IC50 [2] was 71 nM and the IC50 [3] was 2.3 nM.
`COCCN1n2cc(C(=O)NCc3ccc(F)cc3F)c(=O)c(O)c2C(=O)N(C)C12CCOC2` (single isomer, unassigned) [Compound 156] showed an IC50 [4] of 106 nM and an IC50 [5] of 1.2 nM.
With `CN1C(=O)c2c(O)c(=O)c(C(=O)NCc3c(F)cc(F)cc3F)cn2N(C)C12CCOC2` (single isomer, unassigned) [Compound 106] the IC50 [4] was 27 nM and the IC50 [5] was 0.6 nM.
For `CN1C(=O)c2c(O)c(=O)c(C(=O)NCc3ccc(F)cc3F)cn2N(CCCC(F)(F)F)C12CCOC2` (single isomer, unassigned) [Compound 165], the IC50 [4] was 146 nM.
In the case of `COCCCN1C(=O)c2c(O)c(=O)c(C(=O)NCc3ccc(F)cc3F)cn2CC12CCNCC2` [Compound 89], the IC50 [2] is reported as 87 nM and the IC50 [3] is reported as 16.1 nM.
`CCN1C(=O)c2c(O)c(=O)c(-c3nnc(Cc4ccc(F)cc4F)s3)cn2N(C)C12CCN(S(C)(=O)=O)CC2` [Compound 12] was tested, and the IC50 [1] was 24 nM and the IC50 [2] was 126 nM.
For `COCCCN1C(=O)c2c(O)c(=O)c(C(=O)NCc3ccc(F)cc3F)cn2N(C)C12CCOC2` (single isomer, unassigned) [Compound 124], the IC50 [6] was 22 nM, the IC50 [4] was 309 nM and the IC50 [5] was 1.8 nM.
`CCN1C(=O)c2c(O)c(=O)c(-c3nnc(Cc4ccc(F)cc4F)s3)cn2N(C)C12CCS(=O)(=O)CC2` [Compound 16] gave an IC50 [1] of 47 nM and an IC50 [3] of 17.3 nM.
